This is an account of results in US9833497B2, “Human originated EGF domain proteins and use of the same” (CHENGDU SOURCEBIO LIMITED-LIABILITY COMPANY, priority 2013, dated 2017).

Holding throughout (assay type): cell-based
One assay concerns E. coli DH5α. The experiment in a line: Antibacterial activity: MIC and growth curve against E. coli DH5α in 96-well plate. Conditions: minimal inhibitory concentration against E. coli DH5α; 96-well plate, 5×10^5 CFU/mL, 37° C., judged after 8 h. The essentials: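 MIC taken as lowest protein level with no bacterial growth, tracked by A600 every 30 min during 37 °C, 175 rpm culture. Two-fold protein series 50-12.5 μg/mL final, triplicate wells, against 5×10^5 CFU/mL of LB-washed mid-log cells.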

Another assay concerns E. coli BL21. The assay is described as follows: MIC against Gram-negative bacteria: E. coli BL21. Particulars: for MIC / MIC (μg/mL) E. coli BL21: E. coli BL21. Summed up: (§1)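 Growth inhibition by human EGF domain proteins was scored in LB liquid culture seeded at 5×10^5 CFU/mL. Protein was applied as a two-fold dilution series in triplicate, with shaking incubation at 37° C; MIC is the lowest concentration giving no growth.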

A further assay relates to Pseudomonas aeruginosa. The assay is described as follows: MIC against Gram-negative bacteria: Pseudomonas aeruginosa. Summed up: as §1
For a further assay, the system named is Klebsiella pneumonia. The assay is described as follows: MIC against Gram-negative bacteria: Klebsiella pneumonia. The essentials: as §1
The test system of a further assay is Enterobacter cloacae. The assay is described as follows: MIC against Gram-negative bacteria: Enterobacter cloacae. The essentials: as §1
The next assay concerns Aeromonas hydrophila. The experiment in a line: MIC against Gram-negative bacteria: Aeromonas hydrophila. Summed up: as §1
A further assay has as its system Citrobacter diversus. The assay is described as follows: MIC against Gram-negative bacteria: Citrobacter diversus. Summed up:
as §1

In a further assay the test system is Moraxella catarrhalis. The assay is described as follows: MIC against Gram-negative bacteria: Moraxella catarrhalis. Summed up: as §1
The test system of another assay is Proteus mirabilis. The assay is described as follows: MIC against Gram-negative bacteria: Proteus mirabilis. The essentials: as §1
The next assay has as its system Proteus vulgaris. The experiment in a line: MIC against Gram-negative bacteria: Proteus vulgaris. Summed up: as §1
The next assay has as its system Serratia marcescens. The assay is described as follows: MIC against Gram-negative bacteria: Serratia marcescens. The essentials:
as §1

Where [1] appears, read: P. aeruginosa, 10 h cultivation at 37° C.
Setting [2] is: K. pneumonia, 10 h cultivation at 37° C.
The mark [3] stands for this setting: E. cloacae, 10 h cultivation at 37° C.
The mark [4] stands for this setting: A. hydrophila, 10 h cultivation at 37° C.
[5] abbreviates: C. diversus, 10 h cultivation at 37° C.
Setting [6] is: M. catarrhalis, 10 h cultivation at 37° C.
[7] abbreviates: P. mirabilis, 10 h cultivation at 37° C.
[8] abbreviates: P. vulgaris, 10 h cultivation at 37° C.
Where [9] appears, read: S. marcescens, 10 h cultivation at 37° C.
[10] abbreviates: 10 h cultivation at 37° C., 5×10^5 CFU/mL.
Setting [11] is: P. aeruginosa, 10 h cultivation at 37° C., 5×10^5 CFU/mL.
[12] abbreviates: K. pneumonia, 10 h cultivation at 37° C., 5×10^5 CFU/mL.
The mark [13] stands for this setting: E. cloacae, 10 h cultivation at 37° C., 5×10^5 CFU/mL.
The mark [14] stands for this setting: A. hydrophila, 10 h cultivation at 37° C., 5×10^5 CFU/mL.
Setting [15] is: C. diversus, 10 h cultivation at 37° C., 5×10^5 CFU/mL.
[16] abbreviates: M. catarrhalis, 10 h cultivation at 37° C., 5×10^5 CFU/mL.
The mark [17] stands for this setting: P. mirabilis, 10 h cultivation at 37° C., 5×10^5 CFU/mL.
Setting [18] is: P. vulgaris, 10 h cultivation at 37° C., 5×10^5 CFU/mL.
Where [19] appears, read: S. marcescens, 10 h cultivation at 37° C., 5×10^5 CFU/mL.
The mark [20] stands for this setting: 96-well plate, 5×10^5 CFU/mL, 37° C., 10 h.

As usually defined, the MIC is the lowest concentration found to suppress growth. For “PRT974 (EADPCLSRPCLHGGVCSAAHPGFRCTCLESFTGPQCQ; listed as Homo sapiens)”, the MIC was found to be 25 µg/mL in the assay on E. coli DH5α; 50 µg/mL with E. coli BL21 (10 h cultivation at 37° C.); 12.5 µg/mL in the assay with Pseudomonas aeruginosa (setting [1]); 50 µg/mL in the assay with Klebsiella pneumonia (setting [2]); 12.5 µg/mL against Enterobacter cloacae (setting [3]); 50 µg/mL with Aeromonas hydrophila (setting [4]). In addition, the MIC in the assay on Citrobacter diversus (setting [5]) came out at 25 µg/mL; against Moraxella catarrhalis (setting [6]), 12.5 µg/mL; against Proteus mirabilis (setting [7]), 50 µg/mL; in the assay with Proteus vulgaris (setting [8]), 25 µg/mL; against Serratia marcescens (setting [9]) it was 12.5 µg/mL.
For the substance “PRT1018 (DVDECETQGPPHCRNGGTCQNSAGSFHCVCVSGWGGTSCE; listed as Homo sapiens)”, the MIC turned out to be 25 µg/mL against E. coli DH5α; 12.5 µg/mL in the assay with E. coli BL21 (10 h cultivation at 37° C.); 50 µg/mL with Pseudomonas aeruginosa (setting [1]); 12.5 µg/mL against Klebsiella pneumonia (setting [2]); 25 µg/mL in the assay with Enterobacter cloacae (setting [3]); 50 µg/mL in the assay on Aeromonas hydrophila (setting [4]). Moreover, the MIC against Citrobacter diversus (setting [5]) is 12.5 µg/mL; against Moraxella catarrhalis (setting [6]) it was 50 µg/mL; against Proteus mirabilis (setting [7]), 12.5 µg/mL; against Proteus vulgaris (setting [8]), 50 µg/mL; in the assay with Serratia marcescens (setting [9]), 25 µg/mL.
For the substance “PRT751 (LCATGDHDCEQVCISSPGSYTCACHEGFTLNSDGKTCN; listed as Homo sapiens)”, the MIC against E. coli DH5α stood at 12.5 µg/mL. In addition, the “MIC (μg/mL) E. coli BL21” value in the assay with E. coli BL21 (setting [10]) is 25 µg/mL. Moreover, in the assay on Pseudomonas aeruginosa (setting [11]), the “MIC (μg/mL) P. aeruginosa” value amounted to 50 µg/mL. Moreover, in the assay on Klebsiella pneumonia (setting [12]), the “MIC (μg/mL) K. pneumonia” value amounted to 12.5 µg/mL. Also, the “MIC (μg/mL) E. cloacae” value against Enterobacter cloacae (setting [13]) came out at 50 µg/mL. In addition, the “MIC (μg/mL) A. hydrophila” value in the assay on Aeromonas hydrophila (setting [14]) was 25 µg/mL. Also, the “MIC (μg/mL) C. diversus” value in the assay on Citrobacter diversus (setting [15]) was found to be 12.5 µg/mL. For the same substance, in the assay on Moraxella catarrhalis (setting [16]), the “MIC (μg/mL) M. catarrhalis” value turned out to be 25 µg/mL. For the same substance, in the assay on Proteus mirabilis (setting [17]), the “MIC (μg/mL) P. mirabilis” value came out at 50 µg/mL. The “MIC (μg/mL) P. vulgaris” value with Proteus vulgaris (setting [18]) amounted to 25 µg/mL. For the same substance, the “MIC (μg/mL) S. marcescens” value with Serratia marcescens (setting [19]) is 12.5 µg/mL.
“PRT41 (CDRPCVNGGRCNPGTGQCVCPAGWVGEQC; listed as Homo sapiens)” gave an MIC in the assay with E. coli DH5α of 25 µg/mL. Further, the “MIC (μg/mL) E. coli BL21” value with E. coli BL21 (setting [20]) was determined as 12.5 µg/mL. Also, the “MIC (μg/mL) P. aeruginosa” value against Pseudomonas aeruginosa (Pseudomonas aeruginosa, 96-well plate, 5×10^5 CFU/mL, 37° C., 10 h) was found to be 25 µg/mL. In the assay on Klebsiella pneumonia (Klebsiella pneumonia, 96-well plate, 5×10^5 CFU/mL, 37° C., 10 h), the “MIC (μg/mL) K. pneumonia” value amounted to 12.5 µg/mL. Moreover, in the assay with Enterobacter cloacae (Enterobacter cloacae, 96-well plate, 5×10^5 CFU/mL, 37° C., 10 h), the “MIC (μg/mL) E. cloacae” value is 25 µg/mL. In addition, in the assay on Aeromonas hydrophila (Aeromonas hydrophila, 96-well plate, 5×10^5 CFU/mL, 37° C., 10 h), the “MIC (μg/mL) A. hydrophila” value was found to be 12.5 µg/mL. Also, in the assay on Citrobacter diversus (Citrobacter diversus, 96-well plate, 5×10^5 CFU/mL, 37° C., 10 h), the “MIC (μg/mL) C. diversus” value is 25 µg/mL. The “MIC (μg/mL) M. catarrhalis” value in the assay on Moraxella catarrhalis (Moraxella catarrhalis, 96-well plate, 5×10^5 CFU/mL, 37° C., 10 h) was determined as 12.5 µg/mL. In addition, the “MIC (μg/mL) P. mirabilis” value against Proteus mirabilis (Proteus mirabilis, 96-well plate, 5×10^5 CFU/mL, 37° C., 10 h) came out at 25 µg/mL. Further, the “MIC (μg/mL) P. vulgaris” value with Proteus vulgaris (Proteus vulgaris, 96-well plate, 5×10^5 CFU/mL, 37° C., 10 h) came to 12.5 µg/mL. Further, the “MIC (μg/mL) S. marcescens” value with Serratia marcescens (Serratia marcescens, 96-well plate, 5×10^5 CFU/mL, 37° C., 10 h) is 50 µg/mL.
For “PRT660 (DHDECQDLACENGECVNTEGSFHCFCSPPLTLDLSQQRCM; listed as Homo sapiens)”, the minimal inhibitory concentration (MIC) against E. coli DH5α is 12.5 µg/mL. For the same substance, the “MIC E. coli BL21” value against E. coli BL21 (setting [20]) worked out at 50 µg/mL. For the same substance, the “MIC P. aeruginosa” value with Pseudomonas aeruginosa (setting [20]) was 12.5 µg/mL. Also, the “MIC K. pneumonia” value against Klebsiella pneumonia (setting [20]) is 12.5 µg/mL. Further, in the assay with Enterobacter cloacae (setting [20]), the “MIC E. cloacae” value came out at 50 µg/mL. In the assay on Aeromonas hydrophila (setting [20]), the “MIC A. hydrophila” value turned out to be 12.5 µg/mL. The “MIC C. diversus” value against Citrobacter diversus (setting [20]) is 50 µg/mL. In the assay with Moraxella catarrhalis (setting [20]), the “MIC M. catarrhalis” value stood at 12.5 µg/mL. For the same substance, the “MIC P. mirabilis” value against Proteus mirabilis (setting [20]) was 25 µg/mL. For the same substance, the “MIC P. vulgaris” value with Proteus vulgaris (setting [20]) came out at 50 µg/mL. For the same substance, the “MIC S. marcescens” value in the assay on Serratia marcescens (setting [20]) was found to be 12.5 µg/mL.
In the assay on E. coli DH5α, “PRT744 (GWNECASSNGHCSHLCLAVPVGGFVCGCPAHYSLNADNRTCS; listed as Homo sapiens)” gave an MIC of 12.5 µg/mL. Besides, the “MIC (μg/mL) E. coli BL21” value in the assay with E. coli BL21 (setting [10]) is 50 µg/mL. The “MIC (μg/mL) P. aeruginosa” value against Pseudomonas aeruginosa (setting [11]) was 12.5 µg/mL. For the same substance, the “MIC (μg/mL) K. pneumonia” value against Klebsiella pneumonia (setting [12]) turned out to be 50 µg/mL. The “MIC (μg/mL) E. cloacae” value against Enterobacter cloacae (setting [13]) turned out to be 12.5 µg/mL. For the same substance, the “MIC (μg/mL) A. hydrophila” value against Aeromonas hydrophila (setting [14]) worked out at 50 µg/mL. Also, the “MIC (μg/mL) C. diversus” value against Citrobacter diversus (setting [15]) is 12.5 µg/mL. Moreover, the “MIC (μg/mL) M. catarrhalis” value with Moraxella catarrhalis (setting [16]) worked out at 50 µg/mL. Besides, in the assay with Proteus mirabilis (setting [17]), the “MIC (μg/mL) P. mirabilis” value was 25 µg/mL. Moreover, the “MIC (μg/mL) P. vulgaris” value against Proteus vulgaris (setting [18]) worked out at 25 µg/mL. The “MIC (μg/mL) S. marcescens” value in the assay on Serratia marcescens (setting [19]) amounted to 12.5 µg/mL.
